Assay results reported in patent US20230091047A1 (priority 2019, published 2023).
Read-outs that look alike come from different tables or passages of the source.

Assays:
[1] = system: HBV (HepG2.117 cell line, inducibly HBV producing); assay: Anti-HBV activity: intracellular HBV DNA by real-time PCR in HepG2.117 cells after 3 days of treatment; type: cell-based, hepatitis B virus
Procedure, shortened: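 First, HBV replication is induced in HepG2.117 cells by doxycycline absence. Next, serially diluted compound is added for 3 days. Finally, intracellular HBV DNA is quantified by HBV-specific real-time PCR.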

in vitro = type: cell-based; conditions: human, HepG2 or HepG2.117 cells, ATPlite, mean value
Procedure, shortened: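 Luminescent ATP quantitation served as the viability endpoint following a 3- or 4-day incubation with test compounds.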

[2] = Hepatitis B virus, HepG2.117, 72 h, HepG2.117 cells, 3 days of treatment, intracellular HBV DNA by real-time PCR; mean value; read-out: EC50 (μM, mean value)
[3] = 3-days incubation (unmarked values)
[4] = Hepatitis B virus, HepG2.117, 72 h, HepG2.117 cells, intracellular HBV DNA by real-time PCR, 3 days of treatment, mean value; read-out: EC50 (μM, mean value)
[5] = 3-days incubation (not marked with *)

SMILES	EC50 [1, 2] [µM]	CC50 at 3 days (in vitro; [3]) [µM]	EC50 [1, 4] [µM]	CC50 at 3 days (in vitro; [5]) [µM]
CC(C)NC(=O)c1ccc(-n2c(NC(C)C)nc3c(c2=O)C[C@@H](C)N(C(=O)c2ccc(Cl)c(Cl)c2)C3)cc1 [Compound C178, 4-[(6R)-7-(3,4-dichlorobenzoyl)-6-methyl-4-oxo-2-[(propan-2-yl)amino]-5,6,7,8-tetrahydropyrido[3,4-d]pyrimidin-3(4H)-yl]-N-(propan-2-yl)benzamide]	0.04	> 50		
COc1ccc(CNc2nc3c(c(=O)[nH]2)CCN(C(=O)c2ccc(C(F)(F)F)cc2)C3)cc1 [Compound C118, 2-{[(4-methoxyphenyl)methyl]amino}-7-[4-(trifluoromethyl)benzoyl]-5,6,7,8-tetrahydropyrido[3,4-d]pyrimidin-4(3H)-one]	22	39		
COc1ccc(CNc2nc3c(c(=O)[nH]2)CCN(C(=O)c2ccc(Cl)c(C)c2)C3)cc1 [Compound C60, 7-(4-chloro-3-methylbenzoyl)-2-{[(4-methoxyphenyl)methyl]amino}-5,6,7,8-tetrahydropyrido[3,4-d]pyrimidin-4(3H)-one]	3.25	23.8		
CC(C)N(CCO)c1nc2c(c(=O)[nH]1)CCN(C(=O)c1ccc(Cl)c(Cl)c1)C2 [Compound C97, 7-(3,4-dichlorobenzoyl)-2-[(2-hydroxyethyl)(propan-2-yl)amino]-5,6,7,8-tetrahydropyrido[3,4-d]pyrimidin-4(3H)-one]	3.22	> 50		
CNC(=O)c1cc(-n2c(N[C@@H](C)c3ccc(F)cc3)nc3c(c2=O)C[C@@H](C)N(C(=O)c2ccc(Cl)c(Cl)c2)C3)[nH]n1 [Compound C432]			0.1	21.4
CNC(=O)c1ccc(-n2c(NC(C)(C)C)nc3c(c2=O)C[C@@H](C)N(C(=O)c2ccc(Cl)c(Cl)c2)C3)cc1 [Compound C269, 4-[(6R)-2-(tert-butylamino)-7-(3,4-dichlorobenzoyl)-6-methyl-4-oxo-5,6,7,8-tetrahydropyrido[3,4-d]pyrimidin-3(4H)-yl]-N-methylbenzamide]	0.05	> 50		
COc1ccc(CNc2nc3c(c(=O)n2-c2cnccc2C)CCN(C(=O)c2ccc(Cl)c(Cl)c2)C3)cc1 [Compound C113, 7-(3,4-dichlorobenzoyl)-2-{[(4-methoxyphenyl)methyl]amino}-3-(4-methylpyridin-3-yl)-5,6,7,8-tetrahydropyrido[3,4-d]pyrimidin-4(3H)-one]	0.65	19.4		
CNC(=O)c1ccc(-n2c(NC(C)C)nc3c(c2=O)C[C@@H](C)N(C(=O)c2ccc(Cl)c(Cl)c2)C3)cc1F [Compound C274, 4-[(6R)-7-(3,4-dichlorobenzoyl)-6-methyl-4-oxo-2-[(propan-2-yl)amino]-5,6,7,8-tetrahydropyrido[3,4-d]pyrimidin-3(4H)-yl]-2-fluoro-N-methylbenzamide]	0.09	> 50		
CNC(=O)c1ccc(-n2c(N[C@H](C)c3ccccc3OC)nc3c(c2=O)C[C@@H](C)N(C(=O)c2ccc(Cl)c(Cl)c2)C3)cc1 (single isomer, unassigned) [Compound C402a]			0.32	13.8
COc1ccc(C(CCO)Nc2nc3c(c(=O)[nH]2)CCN(C(=O)c2ccc(Cl)c(Cl)c2)C3)cc1 (centres unmarked) [Compound C92, 7-(3,4-dichlorobenzoyl)-2-{[3-hydroxy-1-(4-methoxyphenyl)propyl]amino}-5,6,7,8-tetrahydropyrido[3,4-d]pyrimidin-4(3H)-one]	7.09	24.8		
CNC(=O)c1ccc(-n2c(N[C@@H](C)c3ccc(OC(F)(F)F)cc3)nc3c(c2=O)C[C@@H](C)N(C(=O)c2ccc(Cl)c(Cl)c2)C3)cn1 [Compound C537]			0.08	> 50
CNC(=O)c1ccc(-n2c(NC(C)C)nc3c(c2=O)C[C@@H](C)N(C(=O)c2ccc(F)c(Cl)c2)C3)cc1 [Compound C478]			1.28	> 50
CNC(=O)c1ccc(-n2c(O[C@@H](C)C(C)C)nc3c(c2=O)C[C@@H](C)N(C(=O)c2ccc(Cl)c(Cl)c2)C3)cc1 [Compound C446]			0.03	27.6
